Read-outs that look alike come from different tables or passages of the source.

Assay in all cases: HotSpot kinase profiling
What all share (assay type): biochemical

The target in one assay is T1, WNK2 (Homo sapiens, UniProt Q9Y3S1).
T1 construct: purchased Reaction Biology Corp
In outline: (§1)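 P81 filtration radiometric readout; 2 h incubation at room temperature; 0.1% phosphoric acid wash; DMSO negative control; % inhibition, mean of replicate runs.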

A further assay has as its target T2, PAK4 (Homo sapiens, UniProt O96013).
T2 construct: purchased Reaction Biology Corp
In outline: as §1

The target in the next assay is T3, BMPR2 (Homo sapiens, UniProt Q13873).
T3 construct: purchased Reaction Biology Corp
T3 sequence (Q13873 27-1038): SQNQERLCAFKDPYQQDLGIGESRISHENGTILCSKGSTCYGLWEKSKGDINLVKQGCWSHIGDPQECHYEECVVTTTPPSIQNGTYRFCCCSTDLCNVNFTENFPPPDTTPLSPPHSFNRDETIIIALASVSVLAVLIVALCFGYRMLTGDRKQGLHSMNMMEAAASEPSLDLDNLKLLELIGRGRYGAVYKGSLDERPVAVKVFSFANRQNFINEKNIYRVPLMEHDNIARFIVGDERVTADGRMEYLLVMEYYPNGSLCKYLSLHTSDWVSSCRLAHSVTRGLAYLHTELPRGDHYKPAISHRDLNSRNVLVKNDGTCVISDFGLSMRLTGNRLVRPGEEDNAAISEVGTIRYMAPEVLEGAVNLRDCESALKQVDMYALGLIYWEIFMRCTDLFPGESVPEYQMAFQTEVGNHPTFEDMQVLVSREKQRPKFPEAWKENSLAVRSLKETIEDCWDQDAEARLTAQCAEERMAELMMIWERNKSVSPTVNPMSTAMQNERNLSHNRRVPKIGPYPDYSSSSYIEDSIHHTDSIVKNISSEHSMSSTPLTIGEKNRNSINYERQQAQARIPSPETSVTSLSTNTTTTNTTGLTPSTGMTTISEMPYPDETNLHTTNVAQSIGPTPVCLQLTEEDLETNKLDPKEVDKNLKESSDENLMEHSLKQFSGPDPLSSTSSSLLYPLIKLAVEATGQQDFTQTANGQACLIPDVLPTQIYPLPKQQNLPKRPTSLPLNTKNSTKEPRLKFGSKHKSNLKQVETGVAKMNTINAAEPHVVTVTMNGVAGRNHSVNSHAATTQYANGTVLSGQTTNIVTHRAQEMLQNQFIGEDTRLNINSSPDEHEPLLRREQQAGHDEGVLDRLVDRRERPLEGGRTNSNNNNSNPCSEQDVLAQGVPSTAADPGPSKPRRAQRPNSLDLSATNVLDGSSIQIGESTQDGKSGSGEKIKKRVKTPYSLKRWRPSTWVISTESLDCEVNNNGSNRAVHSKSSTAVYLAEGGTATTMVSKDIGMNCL
In outline:
as §1

A further assay deals with T4, NEK2 (Homo sapiens, UniProt P51955).
T4 construct: purchased Reaction Biology Corp
T4 sequence (P51955 1-445): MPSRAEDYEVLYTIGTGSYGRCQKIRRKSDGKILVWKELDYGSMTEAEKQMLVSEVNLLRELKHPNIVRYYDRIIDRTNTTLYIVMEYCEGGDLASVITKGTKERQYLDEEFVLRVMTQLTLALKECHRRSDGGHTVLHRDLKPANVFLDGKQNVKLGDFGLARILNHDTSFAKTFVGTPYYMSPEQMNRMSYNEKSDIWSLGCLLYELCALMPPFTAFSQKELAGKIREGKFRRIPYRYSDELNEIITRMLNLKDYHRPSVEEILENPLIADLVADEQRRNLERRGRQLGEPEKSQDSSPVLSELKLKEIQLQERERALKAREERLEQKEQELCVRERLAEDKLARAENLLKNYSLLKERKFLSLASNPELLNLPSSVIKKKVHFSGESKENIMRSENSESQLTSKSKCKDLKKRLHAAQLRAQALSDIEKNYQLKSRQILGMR
The method, boiled down:
as §1

For another assay, the target named is T5, CAMK4 (Homo sapiens, UniProt Q16566).
T5 construct: purchased Reaction Biology Corp
T5 sequence (Q16566 1-473): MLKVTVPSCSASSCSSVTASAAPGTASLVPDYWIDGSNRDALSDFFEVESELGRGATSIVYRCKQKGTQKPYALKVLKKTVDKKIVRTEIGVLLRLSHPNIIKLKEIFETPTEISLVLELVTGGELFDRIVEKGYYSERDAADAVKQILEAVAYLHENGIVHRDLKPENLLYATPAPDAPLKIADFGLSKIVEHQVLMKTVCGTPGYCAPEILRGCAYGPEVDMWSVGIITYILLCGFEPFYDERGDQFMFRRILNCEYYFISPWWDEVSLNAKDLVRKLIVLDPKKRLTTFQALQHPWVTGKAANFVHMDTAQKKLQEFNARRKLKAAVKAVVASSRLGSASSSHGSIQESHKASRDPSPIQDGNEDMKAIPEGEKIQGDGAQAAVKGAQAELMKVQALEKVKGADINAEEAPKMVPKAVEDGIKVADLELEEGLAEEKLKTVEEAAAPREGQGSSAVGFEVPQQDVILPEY
In outline:
as §1

Setting [1] is: read-out: % Enzyme Activity (relative to DMSO controls) Run 1.
[2] abbreviates: read-out: % Enzyme Activity (relative to DMSO controls) Run 2.

T1 sequence (Q9Y3S1 whole entry): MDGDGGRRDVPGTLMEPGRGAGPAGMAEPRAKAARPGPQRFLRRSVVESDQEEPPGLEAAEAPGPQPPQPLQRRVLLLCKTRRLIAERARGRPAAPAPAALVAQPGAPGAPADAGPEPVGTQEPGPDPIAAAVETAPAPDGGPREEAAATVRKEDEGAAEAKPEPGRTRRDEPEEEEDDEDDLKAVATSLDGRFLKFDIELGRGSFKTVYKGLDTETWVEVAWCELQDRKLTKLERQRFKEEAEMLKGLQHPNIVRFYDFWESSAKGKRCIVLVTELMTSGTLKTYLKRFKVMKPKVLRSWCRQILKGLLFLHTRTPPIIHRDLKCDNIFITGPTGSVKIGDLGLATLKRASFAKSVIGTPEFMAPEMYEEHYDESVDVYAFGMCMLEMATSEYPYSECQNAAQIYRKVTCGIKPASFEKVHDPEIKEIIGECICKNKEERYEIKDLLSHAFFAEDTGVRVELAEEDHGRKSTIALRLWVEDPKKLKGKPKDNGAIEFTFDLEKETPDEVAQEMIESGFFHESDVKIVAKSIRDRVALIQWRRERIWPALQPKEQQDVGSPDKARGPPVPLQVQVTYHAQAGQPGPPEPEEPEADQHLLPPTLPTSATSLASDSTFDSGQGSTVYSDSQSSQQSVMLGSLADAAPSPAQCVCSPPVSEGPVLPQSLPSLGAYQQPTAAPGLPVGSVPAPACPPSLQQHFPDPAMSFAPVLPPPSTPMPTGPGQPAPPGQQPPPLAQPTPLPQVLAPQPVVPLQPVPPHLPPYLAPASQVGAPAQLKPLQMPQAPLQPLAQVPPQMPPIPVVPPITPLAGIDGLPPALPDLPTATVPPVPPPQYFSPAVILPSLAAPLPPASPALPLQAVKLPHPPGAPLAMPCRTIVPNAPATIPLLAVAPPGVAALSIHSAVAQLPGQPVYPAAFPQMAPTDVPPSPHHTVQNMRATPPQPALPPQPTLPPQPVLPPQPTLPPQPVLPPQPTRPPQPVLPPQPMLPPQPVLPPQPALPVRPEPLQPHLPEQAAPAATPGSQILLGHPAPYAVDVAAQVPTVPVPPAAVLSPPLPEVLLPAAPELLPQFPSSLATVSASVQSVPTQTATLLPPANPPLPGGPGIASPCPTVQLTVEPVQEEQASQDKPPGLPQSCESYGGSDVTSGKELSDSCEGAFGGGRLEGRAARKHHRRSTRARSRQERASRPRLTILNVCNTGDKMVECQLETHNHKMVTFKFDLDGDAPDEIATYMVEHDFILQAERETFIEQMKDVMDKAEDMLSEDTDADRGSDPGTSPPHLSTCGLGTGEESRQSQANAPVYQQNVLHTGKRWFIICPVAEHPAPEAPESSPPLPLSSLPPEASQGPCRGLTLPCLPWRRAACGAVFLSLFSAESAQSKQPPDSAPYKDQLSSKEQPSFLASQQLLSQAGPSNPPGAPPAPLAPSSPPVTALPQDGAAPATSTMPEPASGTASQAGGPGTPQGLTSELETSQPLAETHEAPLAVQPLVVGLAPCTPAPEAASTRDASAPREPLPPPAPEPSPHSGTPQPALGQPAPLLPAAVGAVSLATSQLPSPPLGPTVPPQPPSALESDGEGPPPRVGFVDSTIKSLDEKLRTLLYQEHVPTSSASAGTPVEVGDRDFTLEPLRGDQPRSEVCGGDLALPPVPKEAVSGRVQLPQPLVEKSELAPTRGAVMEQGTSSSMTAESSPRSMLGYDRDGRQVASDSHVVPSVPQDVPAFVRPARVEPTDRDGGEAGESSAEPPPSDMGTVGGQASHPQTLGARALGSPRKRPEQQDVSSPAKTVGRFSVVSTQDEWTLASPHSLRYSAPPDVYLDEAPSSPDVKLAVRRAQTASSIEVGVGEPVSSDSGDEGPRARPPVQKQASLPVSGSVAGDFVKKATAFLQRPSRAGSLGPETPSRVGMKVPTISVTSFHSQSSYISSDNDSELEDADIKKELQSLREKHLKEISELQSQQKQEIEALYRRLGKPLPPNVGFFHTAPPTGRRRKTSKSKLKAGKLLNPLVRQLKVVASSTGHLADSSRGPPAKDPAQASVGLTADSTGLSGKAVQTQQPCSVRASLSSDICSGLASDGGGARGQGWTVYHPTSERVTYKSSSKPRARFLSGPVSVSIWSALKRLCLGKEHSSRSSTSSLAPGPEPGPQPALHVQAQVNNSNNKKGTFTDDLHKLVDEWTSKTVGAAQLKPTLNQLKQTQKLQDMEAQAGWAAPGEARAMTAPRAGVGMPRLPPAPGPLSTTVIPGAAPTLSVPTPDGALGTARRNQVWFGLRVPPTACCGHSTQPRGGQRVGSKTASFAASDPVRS
T2 sequence (O96013 whole entry): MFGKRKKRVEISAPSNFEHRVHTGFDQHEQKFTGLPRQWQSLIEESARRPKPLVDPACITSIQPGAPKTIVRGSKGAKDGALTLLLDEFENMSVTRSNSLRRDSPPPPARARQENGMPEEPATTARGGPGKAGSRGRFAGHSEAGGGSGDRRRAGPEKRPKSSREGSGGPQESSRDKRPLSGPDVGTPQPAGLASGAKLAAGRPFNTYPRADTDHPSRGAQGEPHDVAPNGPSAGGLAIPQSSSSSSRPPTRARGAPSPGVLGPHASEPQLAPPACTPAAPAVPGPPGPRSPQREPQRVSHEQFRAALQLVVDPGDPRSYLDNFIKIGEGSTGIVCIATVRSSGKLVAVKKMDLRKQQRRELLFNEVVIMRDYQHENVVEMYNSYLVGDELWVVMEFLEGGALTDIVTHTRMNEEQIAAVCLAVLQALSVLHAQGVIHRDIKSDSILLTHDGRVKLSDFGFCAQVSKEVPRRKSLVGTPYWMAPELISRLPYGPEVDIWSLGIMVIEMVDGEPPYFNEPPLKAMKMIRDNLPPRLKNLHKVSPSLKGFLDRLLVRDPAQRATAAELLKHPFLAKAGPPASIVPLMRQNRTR

By inhibition is commonly meant the relative decrease from the control value, in per cent. Regarding `C=CC(=O)Nc1cccc(Nc2nc(Nc3ccc(OCCOC)c(F)c3)ncc2F)c1` [Compound 2], the inhibition at 3 µM is 6.19% at WNK2; 2.45% against PAK4; 16.2% against BMPR2; -4.44% at NEK2; -2.26% on CAMK4. For the same compound, the remaining activity at 3 µM on WNK2 (setting [1]) was found to be 92.3%; at WNK2 (setting [2]) it was 95.3%; at PAK4 (setting [1]) it was 98.7%; on PAK4 (setting [2]) it was 96.4%; on BMPR2 (setting [1]), 83.8%; on BMPR2 (setting [2]) it was 83.8%. Also, the remaining activity at 3 µM at NEK2 (setting [1]) was found to be 102%; at NEK2 (setting [2]) it was 107%; on CAMK4 (setting [1]), 102%; on CAMK4 (setting [2]), 102%.

Source of the values: patent US9492471B2, “Methods of treating a disease or disorder associated with Bruton'S Tyrosine Kinase” (Celgene Avilomics Research, Inc., priority 2013, dated 2016).
